Reference: patent publication EP1140026B1, “BIODEGRADBLE POLYMER ENCAPSULATED SEROTONIN RECEPTOR ANTAGONIST AND METHOD FOR PREPARING THE SAME” (AVENTIS PHARMACEUTICALS INC., priority 1998, dated 2000)

Columns and labels:
[1] = test system: Male Wistar rats; assay: Chronic Mild Stress Model of Depression (CMS), consumption of 1% sucrose solution; type: in vivo
Text: CMS uses mild stressors, such as food and water deprivation, cage tilts, changes of cage mates, etc. Over a period of weeks of exposure to the mild stressors, the animals gradually reduce their consumption of a highly preferred sucrose solution which persists (in untreated animals) for several weeks following the cessation of stress. This decreased sensitivity to reward (the sucrose solution) reflects anhedonia, a symptom of a Major Depressive Episode (see for example, Behavioral Pharmacol. 5: Suppl.1, p. 86 (1994) where lithium, carbamazepine and ketoconazole were evaluated in CMS; Psychopharmacology 93:358-364 (1987) where a tricyclic antidepressant was evaluated in CMS; Behavioral Pharmacology: 5:344-350 (1994) where a catechol-O-methyl transferase inhibitor was evaluated in CMS).
Male Wistar rats were brought into the laboratory two months before the start of the experiment at which time they weighed approximately 300 grams. Except as described below, the animals were singly housed, with food and water freely available, and maintained on a 12 hour light/dark cycle (lights on at 8AM) at a temperature of about 22 °C.
The animals were first trained to consume a 1% sucrose solution; training consisted of eight 1 hour baseline tests in which sucrose was presented, in the home cage, following 14 hours food and water deprivation;- intake was measured by weighing pre-weighed bottles containing the sucrose solution at the end of the test. Subsequently, sucrose consumption was monitored, under similar conditions, at weekly intervals throughout the whole experiment.
On the basis of their sucrose intakes in the final baseline test, the animals were divided into two matched groups. One group of animals was subjected to a chronic mild stress procedure for a period of 9 consecutive weeks. Each week of stress regime consisted of: two periods of food or water deprivation (12 and 14 hour), two periods of 45 degree cage tilt (12 and 14 hour+), two periods of intermittent overnight illumination (lights on and off every 2 hours), two 14 hour periods of soiled cage (200 ml water in sawdust bedding), two 14 hour periods of paired housing, two 14 hour periods of low intensity stroboscopic illumination (150 flashes/min). Stressors were applied continuously throughout the day and night, and scheduled randomly. Control animals were housed in a separate room and had no contract with the stressed animals. They were deprived of food and water for the 14 hours preceding each sucrose test, but otherwise food and water were freely available in the home cage. On the basis of their sucrose intake scores following 3 weeks of stress, both stressed and control animals were each divided further into matched subgroups (n=8), and for subsequent five weeks they received daily administrations of vehicle (1ml/kg, intraperitoneally (ip)) imipramine (10mg/kg, ip) or MDL 100,907 (0.002, 0.02 and 0.2 mg/kg orally). All drug injections were in a volume of 1ml/kg body weight. Drugs were administered at 10AM and sucrose tests were carried out 24 hours following the last drug treatment. After five weeks, the treatments were terminated and after one week of withdrawal a final sucrose test was carried out. Stress was continued throughout the period of treatment and withdrawal.
Results were analyzed by multiple analysis of variance, followed by Fisher's LSD test for post hoc comparisons of means.

[2] = test system: platelets; conditions: aggregation as the result of minor alterations in the endothelial lining of the vasculature; cited from earlier work
[3] = test system: amphetamine-stimulated locomotion; conditions: in vivo; cited from earlier work
[4] = test system: myocardial tissue; conditions: cited from earlier work
[5] = test system: MDMA-induced dopamine release in the striatum; conditions: in vivo; cited from earlier work
[6] = test system: A10 vs. A9 neuronal activity; conditions: after chronic administration; cited from earlier work
[7] = test system: prepulse inhibition and latent inhibition; conditions: cited from earlier work

## CN(C)CCCN1c2ccccc2CCc2ccccc21 [Imipramine, reference compound]
[1]; imipramine 10mg/kg ip daily, five weeks
  sucrose intake in control animals: no significant effect
[1]; imipramine 10mg/kg ip daily, five weeks, stressed animals
  sucrose intake in stressed animals: gradual increase of sucrose intake
[1]; imipramine 10mg/kg ip daily, Week 5
  sucrose intake after five weeks of treatment, stressed animals versus controls: no significant differences between drug-treated stressed animals and drug- and saline-treated controls
[1]; imipramine 10mg/kg ip daily, stressed animals
  treatment time after which sucrose intake was significantly increased from Week 0 scores: four
[1]; imipramine 10mg/kg ip, stressed animals, one week after withdrawal
  increase of sucrose intake one week after withdrawal from the drug: maintained at similar level

## COc1cccc(C(O)C2CCN(CCc3ccc(F)cc3)CC2)c1OC (stereo not drawn) [MDL 100,907, (+)-α-(2,3-dimethoxyphenyl)-1-[2-(4-fluorophenyl)ethyl]-4-piperidinemethanol]
[2]
  rate at which platelets aggregate: decreases the rate at which platelets aggregate
[3]
  amphetamine-stimulated locomotion: blockade
[4]
  anti-arrhythmic activity, classification system of Vaughan Williams: Class III anti-arrhythmic activity
  duration of the action potential of myocardial tissue: increases the duration of the action potential
[5]
  MDMA-induced dopamine release in the striatum: reduction
[1]; 0.002mg/kg orally daily, stressed animals
  sucrose intake throughout the whole treatment period: no significant effect
[1]; 0.002mg/kg orally daily, stressed animals, Week 5
  sucrose consumption after five weeks of treatment: did not differ from the intakes of the vehicle-treated stressed animals
[1]; 0.02 mg/kg orally daily, stressed animals
  treatment time after which sucrose intakes were significantly increased from initial scores (Week 0): two
[1]; 0.02 mg/kg orally daily, stressed animals, Week 5
  amount of sucrose solution drunk at the end of treatment period (Week 5): comparable to that of vehicle-treated controls and significantly higher than that of vehicle-treated stressed animals
[1]; 0.2 mg/kg orally daily, stressed animals
  treatment time after which sucrose intakes were significantly increased from initial scores (Week 0): three
[1]; 0.2 mg/kg orally daily, stressed animals, Week 5
  amount of sucrose solution drunk at the end of treatment period (Week 5): comparable to that of vehicle-treated controls and significantly higher than that of vehicle-treated stressed animals
[1]; 0.002, 0.02 and 0.2 mg/kg, control and stressed animals, one week after withdrawal
  sucrose intakes one week after withdrawal from the treatment: not significantly changed
[1]; MDL 100,907 0.002, 0.02 and 0.2 mg/kg orally daily, five weeks
  sucrose intake in control animals: no significant effect
[1]; MDL 100,907 0.002, 0.02 and 0.2 mg/kg orally daily, five weeks, stressed animals
  CMS-induced deficit in sucrose intake in stressed animals: gradually reversed the CMS-induced deficit in sucrose intake
[6]
  A10 vs. A9 neuronal activity: selective effects
[7]; disruption produced by 5HT agonists in Wistar rats
  disrupted PPI (prepulse inhibition): restore disrupted PPI
[7]; rat, in vivo
  5-HT2 agonist-induced deficits in prepulse inhibition and latent inhibition: reversal
